Assay results as given in PMC10385824, “Antiproliferative and Tubulin-Destabilising Effects of 3-(Prop-1-en-2-yl)azetidin-2-Ones and Related Compounds in MCF-7 and MDA-MB-231 Breast Cancer Cells” (Pharmaceuticals, 2023).
Where two headings read alike, the source gives them in different places.

Legend:
NCI-H23 = assay: NCI-60 SRB screen, non-small cell lung cancer; format: cell-based, human; conditions: Homo sapiens, NCI-H23, 48 h
SK-OV-3 = assay: NCI-60 SRB screen, ovarian cancer; format: cell-based, human; conditions: Homo sapiens, SK-OV-3, 48 h
COLO 205 = assay: NCI-60 SRB screen, colon cancer; format: cell-based, human; conditions: Homo sapiens, COLO 205, 48 h
LOX IMVI = assay: NCI-60 SRB screen, melanoma; format: cell-based, human; conditions: Homo sapiens, 48 h
SK-MEL-28 = assay: NCI-60 SRB screen, melanoma; format: cell-based, human; conditions: Homo sapiens, SK-MEL-28, 48 h
SR = assay: NCI-60 SRB screen, leukemia; format: cell-based, human; conditions: Homo sapiens, 48 h
SN12C = assay: NCI-60 SRB screen, renal cancer; format: cell-based, human; conditions: Homo sapiens, 48 h
ACHN = assay: NCI-60 SRB screen, renal cancer; format: cell-based, human; conditions: Homo sapiens, 48 h
CAKI-1 = assay: NCI-60 SRB screen, renal cancer; format: cell-based, human; conditions: Homo sapiens, CAKI-1, 48 h
HCT-15 = assay: NCI-60 SRB screen, colon cancer; format: cell-based, human; conditions: Homo sapiens, HCT-15, 48 h
HCT-2998 = assay: NCI-60 SRB screen, colon cancer; format: cell-based, human; conditions: Homo sapiens, 48 h
TK-10 = assay: NCI-60 SRB screen, renal cancer; format: cell-based, human; conditions: Homo sapiens, TK-10, 48 h
KM12 = assay: NCI-60 SRB screen, colon cancer; format: cell-based, human; conditions: Homo sapiens, KM12, 48 h
U251 = assay: NCI-60 SRB screen, CNS cancer; format: cell-based, human; conditions: Homo sapiens, U-251, 48 h
UO-31 = assay: NCI-60 SRB screen, renal cancer; format: cell-based, human; conditions: Homo sapiens, UO-31, 48 h
NCI-H226 = assay: NCI-60 SRB screen, non-small cell lung cancer; format: cell-based; conditions: Homo sapiens, NCI-H226, 48 h
SNB-19 = assay: NCI-60 SRB screen, CNS cancer; format: cell-based, human; conditions: Homo sapiens, SNB-19, 48 h
MCF-7 = assay: cells; conditions: Homo sapiens, MCF7, 48 h
K-562 = assay: NCI-60 SRB screen, leukemia; format: cell-based, human; conditions: Homo sapiens, K562, 48 h
HOP-92 = assay: NCI-60 SRB screen, non-small cell lung cancer; format: cell-based, human; conditions: Homo sapiens, HOP-92, 48 h
PC-3 = assay: NCI-60 SRB screen, prostate cancer; format: cell-based, human; conditions: Homo sapiens, PC-3, 48 h
SK-MEL-5 = assay: NCI-60 SRB screen, melanoma; format: cell-based, human; conditions: Homo sapiens, SK-MEL-5, 48 h
EKVX = assay: NCI-60 SRB screen, non-small cell lung cancer; format: cell-based, human; conditions: Homo sapiens, 48 h
A498 = assay: NCI-60 SRB screen, renal cancer; format: cell-based, human; conditions: Homo sapiens, A498, 48 h
A549/ATCC = assay: NCI-60 SRB screen, non-small cell lung cancer; format: cell-based, human; conditions: Homo sapiens, A549, 48 h
MOLT-4 = assay: NCI-60 SRB screen, leukemia; format: cell-based, human; conditions: Homo sapiens, MOLT-4, 48 h
SW-620 = assay: NCI-60 SRB screen, colon cancer; format: cell-based, human; conditions: Homo sapiens, SW-620, 48 h
NCI-H552 = assay: NCI-60 SRB screen, non-small cell lung cancer; format: cell-based, human; conditions: Homo sapiens, 48 h
IGROV1 = assay: NCI-60 SRB screen, ovarian cancer; format: cell-based, human; conditions: Homo sapiens, IGROV-1, 48 h
SF539 = assay: NCI-60 SRB screen, CNS cancer; format: cell-based, human; conditions: Homo sapiens, SF-539, 48 h
[1] = test system: NCI 60 human cancer cell line panel; assay: NCI 60 cell line screen (SRB), panel values
MDA-MB-231/ATCC = assay: NCI-60 SRB screen, breast cancer; format: cell-based, human; conditions: Homo sapiens, MDA-MB-231, 48 h
OVCAR-4 = assay: NCI-60 SRB screen, ovarian cancer; format: cell-based, human; conditions: Homo sapiens, OVCAR-4, 48 h

## C=C/C=C/C1C(=O)N(c2cc(OC)c(OC)c(OC)c2)C1c1ccc(OC)c(N)c1 (stereo not shown) [11r, (E)-4-(3-Amino-4-methoxyphenyl)-3-(buta-1,3-dien-1-yl)-1-(3,4,5-trimethoxyphenyl)azetidin-2-one]
NCI-H23
  GI50: 30 nM
SK-OV-3
  GI50: 35.6 nM
COLO 205
  GI50: 23.1 nM
LOX IMVI
  GI50: 34.4 nM
SK-MEL-28
  GI50: > 100000 nM
SR
  GI50: 33.5 nM
SN12C
  GI50: 59.1 nM
ACHN
  GI50: 61.4 nM
CAKI-1
  GI50: 63.1 nM
HCT-15
  GI50: 37 nM
HCT-2998
  GI50: 27 nM
TK-10
  GI50: 74.8 nM
KM12
  GI50: 33.1 nM
U251
  GI50: 35.7 nM
UO-31
  GI50: 190 nM
NCI-H226
  GI50: 56.4 nM
SNB-19
  GI50: 64.9 nM
MCF-7
  GI50: 33.6 nM
K-562
  GI50: 39.3 nM
HOP-92
  GI50: 25.3 nM
PC-3
  GI50: 39.2 nM
SK-MEL-5
  GI50: 22.2 nM
EKVX
  GI50: 88 nM
A498
  GI50: 22.3 nM
A549/ATCC
  GI50: 38 nM
MOLT-4
  GI50: 39.6 nM
SW-620
  GI50: 42.9 nM
NCI-H552
  GI50: 16.9 nM
IGROV1
  GI50: 46.6 nM
SF539
  GI50: 39 nM
[1]; Homo sapiens, 60 cell, read-out: Mean GI50, mean over all NCI 60 cell lines
  GI50: < 91.2 nM
[1]; Homo sapiens, 60 cell, read-out: Mean LC50
  CC50: 77600 nM
[1]; Homo sapiens, 60 cell, read-out: Mean TGI
  IC (TGI (total growth inhibition)): 38000 nM
[1]; read-out: Mean GI50, mean over all NCI 60 cell lines
  GI50: 91.2 nM
MDA-MB-231/ATCC
  GI50: 31.5 nM
MDA-MB-231/ATCC; read-out: Antiproliferative Activity IC50
  IC50: 33.7 nM
OVCAR-4
  GI50: 38.8 nM
